Reference: US20060024392A1, “Compositions and methods for enhancing the effectiveness of a chemotherapeutic agent” (priority 2004, published 2006)
Entries after “also recorded” stand apart in the source; their conditions may differ.

Test system: HT29 colon cancer cells
Assay: Sulforhodamine B (SRB) cell growth assay in HT29 colon cancer cells
Type: cell-based
Description: HT-29, a cell line derived from colorectal adenocarcinoma (ATCC, HTB 38), grows in McCoy's 5A medium (Biowhittaker, Inc. Walkersville, Md.). NCM460, a cell line derived from a normal human colon (InCell Corp. San Antonio, Tex.), grows in M3 Base media (InCell Corp. San Antonio, Tex.).
Both cell lines are kept at 37° C. and 5% CO2 atmosphere. Both media are supplemented with 10% fetal bovine serum (FBS, Biowhittaker, Inc. Walkersville, Md.).
Cells are fixed in situ by the gentle addition of 50 μl of cold 50% (w/v) TCA (final concentration, 10% TCA) and incubated for 60 minutes at 4° C. The supernatant is discarded, and the plates are washed five times with tap water and air dried. Sulforhodamine B (SRB) solution (100 μl) at 0.4% (w/v) in 1% acetic acid is added to each well, and plates are incubated for 10 minutes at room temperature. After staining, unbound dye is removed by washing five times with 1% acetic acid and the plates are air dried. Bound stain is subsequently solubilized with 100 μl 10 mM trizma base for 5 minutes, and the absorbance at wavelength of 490 nm was spectrophotometrically measured using a microplate reader Elx800 (Bio-Tek instruments, Inc.).
Cells were seeded in 96-well cluster tissue culture plates (Costar), containing 100 μl complete growth medium per well at densities of 5,000 cells per well. Incubated at 37° C. in a humidified tissue culture incubator. After 24 Hour, 100 μl complete medium containing 5 half-log dilutions of the 5FU from 2*10^−4 to 2*10^−6 M was added into each well (final concentrations are from 10^−4 to 10^−6 M). Six replicates were used for each concentration. Media containing 0.125% DMSO was used as control. After 48 hours of incubation with 5FU in medium, cell proliferation was assessed using the SRB assay.
Percentage growth (Growth%) is calculated as: [(Ti−Tz)/(C−Tz)]×100 [absorbance measurements at time zero (Tz), control growth (C), and test growth in the presence of drug at the different concentration levels (Ti)].
Similar to the method used in testing GI50 of 5FU: HT29 was plated at 5000 cells per well. […] After 48 hour treatment, cell growth was assessed using SRB assay.
The protocol was the same as described above, except cells were exposed to 5FU at concentration ranging from 10^−4 to 10^−6 M with chokeberry ARE at concentration of 1.56, 5, 15.6, 50 μg monomeric anthocyanin/ml growth media.
The protocol was the similar to Experiment 1: Cells were exposed to half-log diluted SAC at concentration ranging from 3.2 to 1000 μM for 48 hour. Media containing 0.5% filtered water was used as control.
This experiment was to determine whether the antioxidant, SAC would enhance the effect of 5FU in HT29 cells. The protocol was the same as Experiment 3, except cells were exposed to 5FU at concentration ranging from 10^−4 to 10^−6 M with SAC at concentration of 10, 100, 1000 μM.

[1] = SAC 3.2 μM, 48 hour, experiment 1
[2] = SAC 3.2 μM, 48 hour, experiment 2
[3] = SAC 10 μM, 48 hour, experiment 1
[4] = SAC 10 μM, 48 hour, experiment 2
[5] = SAC 32 μM, 48 hour, experiment 1
[6] = SAC 32 μM, 48 hour, experiment 2
[7] = SAC 100 μM, 48 hour, experiment 1
[8] = SAC 100 μM, 48 hour, experiment 2
[9] = SAC 320 μM, 48 hour, experiment 1
[10] = SAC 320 μM, 48 hour, experiment 2
[11] = SAC 1000 μM, 48 hour, experiment 1
[12] = SAC 1000 μM, 48 hour, experiment 2
[13] = Table 6 (1): SAC 1000 uM, 5FU 0
[14] = Table 6 (2): SAC 1000 uM, 5FU 0

With `C=CCSC[C@H](N)C(=O)O` [SAC, S-Allyl-cysteine] the “enhancement of 5FU toxicity by SAC” value (5FU 10^−4 to 10^−6 M with SAC 10, 100, 1000 μM) was “No significant enhancement; also recorded: did not inhibit HT29 cell growth or enhance 5 FU toxicity”, the Growth % [1] was 101.17% and the OD [1] was 0.66. The Growth % [2] was 102.24%, the OD [2] was 0.682 and the Growth % [3] was 98.37%. For the same compound, the OD [3] was 0.648, the Growth % [4] was 94.17% and the OD [4] was 0.646. The Growth % [5] was 92.77%, the OD [5] was 0.624 and the Growth % [6] was 98.43%. It also gave an OD [6] of 0.665, a Growth % [7] of 92.77% and an OD [7] of 0.624. It also gave a Growth % [8] of 98.21%, an OD [8] of 0.664 and a Growth % [9] of 81.59%. The OD [9] was 0.576, the Growth % [10] was 101.35% and the OD [10] was 0.678. For the same compound, the Growth % [11] was 86.95%, the OD [11] was 0.599 and the Growth % [12] was 98.65%. For the same compound, the OD [12] was 0.666, the “inhibition of HT29 cancer cells by SAC” value (SAC 3.2 to 1000 μM, 48 hour) was “did not show significant inhibition; also recorded: did not inhibit HT29 cell growth” and the Growth % (Table 6 (1): SAC 10 uM, 5FU 0) was 104.65%. For the same compound, the OD (Table 6 (1): SAC 10 uM, 5FU 0) was 0.341, the Growth % (Table 6 (1): SAC 100 uM, 5FU 0) was 104.19% and the OD (Table 6 (1): SAC 100 uM, 5FU 0) was 0.34. It also gave a Growth % [13] of 95.35%, an OD [13] of 0.321 and a Growth % (Table 6 (2): SAC 10 uM, 5FU 0) of 92.41%. For the same compound, the OD (Table 6 (2): SAC 10 uM, 5FU 0) was 0.335, the Growth % (Table 6 (2): SAC 100 uM, 5FU 0) was 91.56% and the OD (Table 6 (2): SAC 100 uM, 5FU 0) was 0.333. It also gave a Growth % [14] of 74.26% and an OD [14] of 0.292.
